The target of data set [1] is human cannabinoid CB1 receptor (Homo sapiens, UniProt P21554). The experiment in a line: In vitro affinity for cannabinoid-CB1 receptors ([3H]CP-55,940 radioligand binding, CHO cell membranes). The conditions noted are these: [3H]CP-55,940 as radioligand, read-out: In vitro affinity pKi value (converted). On the procedure: In vitro Affinity for Cannabinoid-CB1 Receptors
The affinity of the compounds of the invention for cannabinoid CB1 receptors can be determined using membrane preparations of Chinese hamster ovary (CHO) cells in which the human cannabinoid CB1 receptor is stably transfected in conjunction with [^3H]CP-55,940 as radioligand. After incubation of a freshly prepared cell membrane preparation with the [^3H]-ligand, with or without addition of compounds of the invention, separation of bound and free ligand is performed by filtration over glassfiber filters. Radioactivity on the filter is measured by liquid scintillation counting.

Data set [2] deals with human CB1 receptor (Homo sapiens, UniProt P21554). The data set is described as follows: In vitro cannabinoid-CB1 receptor antagonism (WIN 55,212-2-induced [3H]-arachidonic acid release in CHO cells). Format: cell-based. The conditions noted are these: antagonism of WIN 55,212-2-induced [3H]-arachidonic acid release, read-out: In vitro antagonism pA2-value (arachidonic acid release) (converted). As for the experimental part:
In vitro Cannabinoid-CB1 Receptor Antagonism
In vitro CB1 receptor antagonism can be assessed with the human CB1 receptor cloned in Chinese hamster ovary (CHO) cells. CHO cells are grown in a Dulbecco's Modified Eagle's medium (DMEM) culture medium, supplemented with 10% heat-inactivated fetal calf serum. Medium is aspirated and replaced by DMEM, without fetal calf serum, but containing [^3H]-arachidonic acid and incubated overnight in a cell culture stove (5% CO2/95% air; 37° C.; water-saturated atmosphere). During this period [^3H]-arachidonic acid is incorporated in membrane phospholipids. On the test day, medium is aspirated and cells are washed three times using 0.5 mL DMEM, containing 0.2% bovine serum albumin (BSA). Stimulation of the CB1 receptor by WIN 55,212-2 leads to activation of PLA2 followed by release of [^3H]-arachidonic acid into the medium. This WIN 55,212-2-induced release is concentration-dependently antagonized by CB1 receptor antagonists.

These results are taken from patent US7495108B2, “Imidazoline derivatives having CB1-antagonistic activity” (Solvay Pharmaceuticals, B.V., priority 2004, dated 2009).

Structures are written as SMILES.

Sequence of human cannabinoid CB1 receptor (P21554 whole entry): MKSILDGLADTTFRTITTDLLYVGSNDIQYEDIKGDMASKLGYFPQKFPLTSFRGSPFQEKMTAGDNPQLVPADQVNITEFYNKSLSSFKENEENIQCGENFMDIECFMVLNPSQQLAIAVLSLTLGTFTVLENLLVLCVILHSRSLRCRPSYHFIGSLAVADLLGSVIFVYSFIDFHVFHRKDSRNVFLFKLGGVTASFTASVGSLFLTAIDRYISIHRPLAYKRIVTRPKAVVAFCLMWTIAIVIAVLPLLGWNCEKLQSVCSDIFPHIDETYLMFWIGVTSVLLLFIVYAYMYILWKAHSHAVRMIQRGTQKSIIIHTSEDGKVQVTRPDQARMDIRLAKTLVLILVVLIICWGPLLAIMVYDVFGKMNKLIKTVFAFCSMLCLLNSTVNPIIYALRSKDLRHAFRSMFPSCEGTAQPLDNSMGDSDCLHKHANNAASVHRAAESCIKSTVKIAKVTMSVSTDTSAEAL
Sequence of human CB1 receptor (P21554 whole entry): as above

The compound `N/C(=N\S(=O)(=O)c1ccc(F)cc1)C1CN(c2ccc(Cl)cc2)C(c2ccc(Cl)cc2Cl)=N1` (centres unmarked) showed a melting point of 172 to 175 °C.
Take `O=C(NC1CC2CCC1C2)C1CN(c2ccc(Cl)cc2)C(c2ccc(Cl)cc2Cl)=N1` (single isomer, unassigned) [Compound 1, 1-(4-chlorophenyl)-2-(2,4-dichlorophenyl)-N-(exo-2-bicyclo[2.2.1]heptyl)-4,5-dihydro-1H-imidazole-4-carboxamide]: in data set [1], the Ki was 20 nM.
For the compound `O=C(NC1CC2CCC1C2)C1CN(c2ccc(Cl)cc2)C(c2ccc(Cl)cc2Cl)=N1` (single isomer, unassigned) [Compound 2, 1-(4-chlorophenyl)-2-(2,4-dichlorophenyl)-N-(exo-2-bicyclo[2.2.1]heptyl)-4,5-dihydro-1H-imidazole-4-carboxamide], the Ki in data set [1] is 100 nM.
On to `O=C(NN1CCCCC1)C1CN(c2ccc(Cl)cc2)C(c2ccc(Cl)cc2Cl)=N1` (centres unmarked) [Compound 3, 1-(4-chlorophenyl)-2-(2,4-dichlorophenyl)-N-(piperidin-1-yl)-4,5-dihydro-1H-imidazole-4-carboxamide], for which the melting point was 113 to 116 °C.
Compound `O=C(NC1CCCCC1)C1CN(c2ccc(Cl)cc2)C(c2ccc(Cl)cc2Cl)=N1` (centres unmarked) [Compound 4, 1-(4-Chlorophenyl)-2-(2,4-dichlorophenyl)-N-cyclohexyl4,5-dihydro-1H-imidazole-4-carboxamide] registered a melting point of 127 to 129 °C. The Ki in data set [1] is 100 nM. For the same compound, in data set [2], the Kb was 20 nM.
As for `N/C(=N\S(=O)(=O)c1ccc(Cl)cc1)C1CN(c2ccc(Cl)cc2)C(c2ccc(Cl)cc2Cl)=N1` (centres unmarked) [Compound 5, 1-(4-chlorophenyl)-2-(2,4-dichlorophenyl)-N-[(4-chlorophenyl)sulfonyl]-4,5-dihydro-1H-imidazole-4-carboxamidine], the melting point lay in the range of 165 to 166 °C.
Turning to `CN(C)S(=O)(=O)/N=C(\N)C1CN(c2ccccc2)C(c2ccc(Cl)cc2)=N1` (centres unmarked) [Compound 7, 2-(4-Chlorophenyl)-N-(dimethylaminosulfonyl)-1-phenyl-4,5-dihydro-1H-imidazole-4-carboxamidine], the melting point lay within 136 to 139 °C.
As to `CN(C)S(=O)(=O)/N=C(\N)C1CN(c2ccc(Cl)cc2)C(c2ccc(Cl)cc2Cl)=N1` (centres unmarked) [Compound 8, 1-(4-chlorophenyl)-2-(2,4-dichlorophenyl)-N-(dimethylaminosul-fonyl)-4,5-dihydro-1H-imidazole-4-carboxamidine], the melting point fell in the range of 146 to 147 °C. The Ki in data set [1] is 158 nM.
